Patent US9801960B2, “Probe for a biological specimen and labelling method and screening method using the probe” (CANON KABUSHIKI KAISHA, priority 2008, dated 2017)

Key:
[1] = Storage stability of staining compound solution in DMSO; type: physicochemical; conditions: 10 ng/mL in DMSO, closed glass container, normal temperature, 1 month; rate of change of absorbance and fluorescence intensity
Method: A 10 ng/mL solution of each of the staining compounds of Labelled Examples 1 to 78 and Labelled Comparative Examples 1 and 2 in DMSO was prepared, charged into a well-closed container made of glass, and left to stand still at normal temperature for 1 month. The absorbance and the fluorescence intensity at the time of the start of a storage stability test were measured at a given wavelength, and their rates of change were examined (+++: rates of change of the absorbance and the fluorescence intensity are less than 5%, and thus, the storage stability is highly excellent; ++: rates of change of the absorbance and fluorescence intensity are 5 to 15%, and thus, the storage stability is excellent; and −: rates of change of the absorbance and fluorescence intensity are more than 15%, and thus, the storage stability is poor).

Zebrafish juveniles = test: In vivo labelling of Zebrafish juveniles with probe for biological specimen; parameters: key to Staining property: +++: stained; −: no stained; key to Fluorescence sensitivity: +++: strongly observed; ++: moderately observed; +: weakly observed; −: no stained; conditions: 1 hour; for Site(s) to be labelled: 10 ng/mL in water, stereoscopic microscope; for Fluorescence sensitivity / Staining property: 10 ng/mL; for Fluorescence sensitivity: fluorescence intensity visually evaluated; for Staining property: visually evaluated
Method: Five juveniles of Zebrafish were put into one well of a well plate together with rearing water. After rearing water had been discharged, 1 mL of distilled water was added to the well, and a solution of a staining compound (1) in DMSO was further added thereto so as to achieve a concentration of 10 ng/mL, followed by gentle stirring (pipetting). Further, Egg Water was prepared by dissolving artificial seawater SEALIFE (manufactured by Marinetech Co., Ltd.) in distilled water at a concentration of 60 mg/L. After the whole had been left to stand for 1 hour, distilled water in the well was discharged and replaced by 1 mL of fresh Egg Water. In addition, such an operation that Egg Water was discharged and replaced by 1 mL of fresh Egg Water was repeated twice. One of the juveniles was taken out from the well onto a dish, supplemented with 100 μL of a 3% methylcellulose aqueous solution to fix the movement of the juvenile, and photographed with a stereoscopic microscope (MZ10F: manufactured by Leica Microsystems K.K.).
The same operation as that in Example 1 was performed except that the staining compound (1) used in Example 1 was changed to any one of the staining compounds described in Table 1.
The same operation as that in Example 1 was performed except that the staining compound (1) used in Example 1 was changed to any one of indocyanine green (ICG) and fluorescein.
The staining property of each of the staining compounds of Labelled Examples 1 to 78 and Labelled Comparative Examples 1 and 2 was visually evaluated (+++: stained and −: no stained).
The fluorescence intensity of each of the staining compounds of Labelled Examples 1 to 78 and Labelled Comparative Examples 1 and 2 was visually evaluated (+++: strongly observed, ++: moderately observed, +: weakly observed, and −: no stained).

[2] = Excitation and fluorescence emission wavelength measurement; type: physicochemical; parameters: Stokes shift (λem − λex): unit not given here; conditions: aqueous solution: 10 mg/mL solution in DMSO diluted 500-fold with purified water
Method: It should be noted that the excitation wavelength and the fluorescence emission wavelength of the staining compound were determined by measuring an aqueous solution, which had been obtained by diluting 500-fold a 10 mg/mL solution of the staining compound in DMSO with purified water, with a fluorescence spectrophotometer FL 4500 manufactured by Hitachi High-Technologies Corporation.

SMILES | Excitation wavelength λex [2] [nm] | Fluorescence emission wavelength λem [2] [nm] | Stokes shift (λem − λex) [2] | Storage stability [1] | Site(s) to be labelled (Zebrafish juveniles) | Fluorescence sensitivity (Zebrafish juveniles) | Staining property (Zebrafish juveniles)
O=C(O)CCN1C(=O)/C(=C\c2ccc3c(c2)C2CCCC2N3c2ccccc2)SC1=S (stereo not drawn) [Dye 129] | 522 | 611 | 89 | +++ (rates of change of the absorbance and the fluorescence intensity are less than 5%, and thus, the storage stability is highly excellent) | blood vessel, gallbladder, and gastrointestinal | +++ | +++
N#C/C(=C\c1cc(Br)c2c(c1)C1CCCC1N2Cc1cccc(Br)c1)C(=O)O (stereo not drawn) [Dye 25] | 394 | 554 | 160 | +++ (rates of change of the absorbance and the fluorescence intensity are less than 5%, and thus, the storage stability is highly excellent) | gastrointestinal tract | ++ | +++
COc1ccc(N2c3ccc(/C=C4/SC(=S)N(CCC(=O)O)C4=O)cc3C3CCCC32)cc1 (stereo not drawn) [Dye 127] | 564 | 651 | 87 | +++ (rates of change of the absorbance and the fluorescence intensity are less than 5%, and thus, the storage stability is highly excellent) | blood vessel, liver, and gastrointestinal tract | +++ | +++
COc1ccc(N2c3ccc(/C=C(\C#N)C(=O)O)cc3C3CCCC32)cc1 (stereo not drawn) [Dye 56] | 437 | 585 | 148 | +++ (rates of change of the absorbance and the fluorescence intensity are less than 5%, and thus, the storage stability is highly excellent) | liver, gallbladder, and gastrointestinal tract | +++ | +++
O=C(O)CCN1C(=O)/C(=C\c2cc(Br)c3c(c2)C2CCCC2N3c2ccc(Br)cc2)SC1=S (stereo not drawn) [Dye 29] | 518 | 575 | 57 | +++ (rates of change of the absorbance and the fluorescence intensity are less than 5%, and thus, the storage stability is highly excellent) | blood vessel, gallbladder, and liver | +++ | +++
O=C(O)C[n+]1c(/C=C/c2ccc3c(c2)C2CCCC2N3Cc2ccccc2)sc2ccccc21 (stereo not drawn) [Dye 24] | 566 | 611 | 45 | +++ (rates of change of the absorbance and the fluorescence intensity are less than 5%, and thus, the storage stability is highly excellent) | nose | +++ | +++
COc1ccc2cc(N3c4ccc(/C=C/c5sc6ccccc6[n+]5CC(=O)O)cc4C4CCCC43)ccc2c1 (stereo not drawn) [Dye 45] | 401 | 516 | 115 | +++ (rates of change of the absorbance and the fluorescence intensity are less than 5%, and thus, the storage stability is highly excellent) | nose | +++ | +++
O=C(O)CN1C(=O)/C(=C\c2ccc3c(c2)C2CCCC2N3c2ccccc2)SC1=S (stereo not drawn) [Dye 1] | 531 | 633 | 102 | +++ (rates of change of the absorbance and the fluorescence intensity are less than 5%, and thus, the storage stability is highly excellent) | blood vessel, gallbladder, and gastrointestinal | +++ | +++
O=C(O)CN1C(=O)/C(=C\c2ccc3c(c2)C2CCCC2N3Cc2ccccc2)SC1=S (stereo not drawn) [Dye 3] | 525 | 607 | 82 | +++ (rates of change of the absorbance and the fluorescence intensity are less than 5%, and thus, the storage stability is highly excellent) | blood vessel, gallbladder, and gastrointestinal | +++ | +++

Continued, in another order:

Excitation wavelength λex [2] [nm] | Fluorescence emission wavelength λem [2] [nm] | Stokes shift (λem − λex) [2] | SMILES | Storage stability [1] | Site(s) to be labelled (Zebrafish juveniles) | Fluorescence sensitivity (Zebrafish juveniles) | Staining property (Zebrafish juveniles)
568 | 712 | 144 | COc1ccc(N2c3ccc(/C=c4/s/c(=C5/SC(=S)N(Cc6ccccc6)C5=O)n(CC(=O)O)c4=O)cc3C3CCCC32)cc1 (stereo not drawn) [Dye 67] | +++ (rates of change of the absorbance and the fluorescence intensity are less than 5%, and thus, the storage stability is highly excellent) | blood vessel | +++ | +++
576 | 657 | 81 | CCN1C(=O)/C(=c2\s/c(=C/c3ccc4c(c3)C3CCCC3N4Cc3ccccc3)c(=O)n2CC(=O)O)SC1=S (stereo not drawn) [Dye 40] | +++ (rates of change of the absorbance and the fluorescence intensity are less than 5%, and thus, the storage stability is highly excellent) | blood vessel, liver, and gastrointestinal tract | +++ | +++
563 | 609 | 46 | CCCCN1C(=O)/C(=c2\s/c(=C/c3ccc4c(c3)C3CCCC3N4c3ccccc3)c(=O)n2CC(=O)OCC)SC1=S (stereo not drawn) [Dye 60] | +++ (rates of change of the absorbance and the fluorescence intensity are less than 5%, and thus, the storage stability is highly excellent) | gastrointestinal tract | ++ | +++
530 | 680 | 150 | C=CCN1C(=O)/C(=c2\s/c(=C/c3ccc4c(c3)C3CCCC3N4c3ccc(OC)cc3)c(=O)n2CC(=O)O)SC1=S (stereo not drawn) [Dye 132] | +++ (rates of change of the absorbance and the fluorescence intensity are less than 5%, and thus, the storage stability is highly excellent) | blood vessel | +++ | +++
582 | 679 | 97 | CCN1C(=O)/C(=c2\s/c(=C/c3ccc4c(c3)C3CCCC3N4c3ccc(OC)cc3)c(=O)n2CC(=O)O)SC1=S (stereo not drawn) [Dye 38] | +++ (rates of change of the absorbance and the fluorescence intensity are less than 5%, and thus, the storage stability is highly excellent) | gastrointestinal tract | +++ | +++
510 | 690 | 180 | C=CCN1C(=O)/C(=c2\s/c(=C/c3ccc4c(c3)C3CCCC3N4c3ccccc3)c(=O)n2CC(=O)O)SC1=S (stereo not drawn) [Dye 133] | +++ (rates of change of the absorbance and the fluorescence intensity are less than 5%, and thus, the storage stability is highly excellent) | blood vessel | +++ | +++
